{"source": "patent US9924714B2", "about": "“Impregnatable matrix of plant, animal or synthetic origin or mixtures of same, containing a uniformly distributed antimicrobial compound, method for impregnating said matrix with a compound, and use thereof in the production of antimicrobial elements” (COMPAÑIA MINERA SAN GERONIMO, priority 2013, dated 2018)", "type_in_all_cases": "cell-based", "key": {"[1]": {"test_system": "Enterococcus faecalis ATCC29212", "experiment": "Sensidisc and thin cloth growth inhibition test (Example 3)", "procedure": "(§1) In this example, the antimicrobial activity of the invention was determined by testing on sensidiscs. On order to do this, they were prepared 5 mm filter paper discs, embedded with various concentrations of compound Cu4SO4(OH)6 (Alkaline Copper Sulfate) of the study dissolved in DMSO (0 μg, 200 μg, 400 μg, 600 μg, 800 μg). In addition, pieces of cloth of about 2×2 cm were prepared and embedded with the new product. Paper discs and fabric were deposited on a background lawn, which was performed as follows:\n(§2) From a bacterial culture of 16 hours, with the strain of interest, it was performed a 1/30 dilution of the culture with fresh medium and incubated under stirring at 37° C. until reaching the exponential growth phase (D0600 nm 0.4-0.5). It was taken an aliquot of 100 μL of the culture in exponential phase, and deposited in 4 mL of Mueller-Hinton soft agar at 0.8% (previously melted and stabilized at 50° C.). The mixture was deposited on a Petri dish with 20 mL of Mueller-Hinton agar base. Once the agar was gelled, each of the discs with different amounts of the test compound were deposited on the background lawn, and incubated at 37° C. during 48 hours.\n(§3) Experiments were performed in triplicate in independently, using as negative control discs with the solvent DMSO alone and cloth without the product of study. As positive control were used commercial discs used with 30 μg of antibiotic Kanamycin (Km)."}, "[2]": {"test_system": "Klebsiella pneumoniae ATCC4352", "experiment": "Sensidisc and thin cloth growth inhibition test (Example 3)", "procedure": "as §1, §2, §3"}, "[3]": {"test_system": "Pseudomonas aeruginosa PAOI", "experiment": "Sensidisc and thin cloth growth inhibition test (Example 3)", "procedure": "as §1, §2, §3"}, "[4]": {"test_system": "Staphylococcus aureus ATCC25923", "experiment": "Sensidisc and thin cloth growth inhibition test (Example 3)", "procedure": "as §1, §2, §3"}, "[5]": {"test_system": "Streptococcus pneumonia ATCC14325", "experiment": "Sensidisc and thin cloth growth inhibition test (Example 3)", "procedure": "as §1, §2, §3"}, "[6]": {"test_system": "Streptococcus pyogenes ATCC2367", "experiment": "Sensidisc and thin cloth growth inhibition test (Example 3)", "procedure": "as §1, §2, §3"}, "[7]": {"test_system": "Acinetobacter baumannii UDP456", "experiment": "Sensidisc and thin cloth growth inhibition test (Example 3)", "design": "unit not given here", "procedure": "as §1, §2, §3"}, "[8]": {"test_system": "Citrobacter freundii ISP1949/99", "experiment": "Sensidisc and thin cloth growth inhibition test (Example 3)", "design": "unit not given here", "procedure": "as §1, §2, §3"}, "[9]": {"test_system": "Enterobacter aerogenes ATCC13048", "experiment": "Sensidisc and thin cloth growth inhibition test (Example 3)", "design": "unit not given here", "procedure": "as §1, §2, §3"}, "[10]": {"test_system": "Enterococcus faecium ISP133/04", "experiment": "Sensidisc and thin cloth growth inhibition test (Example 3)", "design": "unit not given here", "procedure": "as §1, §2, §3"}, "[11]": {"test_system": "Escherichia coli ATCC25922", "experiment": "Sensidisc and thin cloth growth inhibition test (Example 3)", "design": "unit not given here", "procedure": "as §1, §2, §3"}, "[12]": {"test_system": "Staphylococcus epidermidis", "experiment": "Sensidisc and thin cloth growth inhibition test (Example 3)", "design": "unit not given here", "procedure": "as §1, §2, §3"}, "[13]": {"test_system": "all bacterial strains tested", "experiment": "Antibacterial activity of alkaline copper sulfate, summary (Example 3)", "conditions": "summary in words of Table 5", "procedure": "as §1, §2\nExperiments were performed in triplicate in independently, using as negative control discs with the solvent DMSO alone and cloth without the product of study. […]"}}}
{"smiles": "O=S(=O)([O-])[O-].[Cu+2].[Cu+2].[Cu+2].[Cu+2].[OH-].[OH-].[OH-].[OH-].[OH-].[OH-]", "note": "[Alkaline Copper Sulphate, Alkaline Copper Sulfate]", "values": [{"measurement": "Growth inhibition zone", "setting": "[1]; 200 μg on 5 mm disc", "result": "6.0 ± 1.0", "unit": "mm"}, {"measurement": "Growth inhibition zone", "setting": "[1]; 400 μg on 5 mm disc", "result": "6.0 ± 1.0", "unit": "mm"}, {"measurement": "Growth inhibition zone", "setting": "[1]; 600 μg on 5 mm disc", "result": "6.0 ± 1.0", "unit": "mm"}, {"measurement": "Growth inhibition zone", "setting": "[1]; 800 μg on 5 mm disc", "result": "6.0 ± 1.0", "unit": "mm"}, {"measurement": "Growth inhibition zone", "setting": "[2]; 200 μg on 5 mm disc", "result": "7.3 ± 0.6", "unit": "mm"}, {"measurement": "Growth inhibition zone", "setting": "[2]; 400 μg on 5 mm disc", "result": "8.7 ± 0.6", "unit": "mm"}, {"measurement": "Growth inhibition zone", "setting": "[2]; 600 μg on 5 mm disc", "result": "9.7 ± 0.6", "unit": "mm"}, {"measurement": "Growth inhibition zone", "setting": "[2]; 800 μg on 5 mm disc", "result": 10.0, "unit": "mm"}, {"measurement": "Growth inhibition zone", "setting": "[3]; 200 μg on 5 mm disc", "result": "6.3 ± 1.5", "unit": "mm"}, {"measurement": "Growth inhibition zone", "setting": "[3]; 400 μg on 5 mm disc", "result": "6.7 ± 1.2", "unit": "mm"}, {"measurement": "Growth inhibition zone", "setting": "[3]; 600 μg on 5 mm disc", "result": "8.3 ± 0.6", "unit": "mm"}, {"measurement": "Growth inhibition zone", "setting": "[3]; 800 μg on 5 mm disc", "result": "8.3 ± 1.7", "unit": "mm"}, {"measurement": "Growth inhibition zone", "setting": "[4]; 200 μg on 5 mm disc", "result": "6.0 ± 1.0", "unit": "mm"}, {"measurement": "Growth inhibition zone", "setting": "[4]; 400 μg on 5 mm disc", "result": "10.3 ± 0.6", "unit": "mm"}, {"measurement": "Growth inhibition zone", "setting": "[4]; 600 μg on 5 mm disc", "result": "11.7 ± 0.6", "unit": "mm"}, {"measurement": "Growth inhibition zone", "setting": "[4]; 800 μg on 5 mm disc", "result": "14.0 ± 1.0", "unit": "mm"}, {"measurement": "Growth inhibition zone", "setting": "[5]; 200 μg on 5 mm disc", "result": "5.0 ± 1.0", "unit": "mm"}, {"measurement": "Growth inhibition zone", "setting": "[5]; 400 μg on 5 mm disc", "result": "8.0 ± 0.7", "unit": "mm"}, {"measurement": "Growth inhibition zone", "setting": "[5]; 600 μg on 5 mm disc", "result": "9.0 ± 1.0", "unit": "mm"}, {"measurement": "Growth inhibition zone", "setting": "[5]; 800 μg on 5 mm disc", "result": "11.0 ± 1.2", "unit": "mm"}, {"measurement": "Growth inhibition zone", "setting": "[6]; 200 μg on 5 mm disc", "result": "5.0 ± 1.0", "unit": "mm"}, {"measurement": "Growth inhibition zone", "setting": "[6]; 400 μg on 5 mm disc", "result": "6.0 ± 1.0", "unit": "mm"}, {"measurement": "Growth inhibition zone", "setting": "[6]; 600 μg on 5 mm disc", "result": "7.0 ± 1.2", "unit": "mm"}, {"measurement": "Growth inhibition zone", "setting": "[6]; 800 μg on 5 mm disc", "result": "8.0 ± 1.4", "unit": "mm"}, {"measurement": "Growth inhibition zone", "setting": "[7]; 200 μg on 5 mm disc", "result": "11.7 ± 0.6"}, {"measurement": "Growth inhibition zone", "setting": "[7]; 400 μg on 5 mm disc", "result": "15.7 ± 0.6"}, {"measurement": "Growth inhibition zone", "setting": "[7]; 600 μg on 5 mm disc", "result": "17.0 ± 1.0"}, {"measurement": "Growth inhibition zone", "setting": "[7]; 800 μg on 5 mm disc", "result": "19.7 ± 0.6"}, {"measurement": "Growth inhibition zone", "setting": "[8]; 200 μg on 5 mm disc", "result": "8.0 ± 1.0"}, {"measurement": "Growth inhibition zone", "setting": "[8]; 400 μg on 5 mm disc", "result": "10.7 ± 1.5"}, {"measurement": "Growth inhibition zone", "setting": "[8]; 600 μg on 5 mm disc", "result": "11.3 ± 0.6"}, {"measurement": "Growth inhibition zone", "setting": "[8]; 800 μg on 5 mm disc", "result": "11.3 ± 1.5"}, {"measurement": "Growth inhibition zone", "setting": "[9]; 200 μg on 5 mm disc", "result": "7.3 ± 1.5"}, {"measurement": "Growth inhibition zone", "setting": "[9]; 400 μg on 5 mm disc", "result": "9.7 ± 1.5"}, {"measurement": "Growth inhibition zone", "setting": "[9]; 600 μg on 5 mm disc", "result": "9.7 ± 0.6"}, {"measurement": "Growth inhibition zone", "setting": "[9]; 800 μg on 5 mm disc", "result": "9.7 ± 1.5"}, {"measurement": "Growth inhibition zone", "setting": "[10]; 200 μg on 5 mm disc", "result": "6.0 ± 1.0"}, {"measurement": "Growth inhibition zone", "setting": "[10]; 400 μg on 5 mm disc", "result": "6.0 ± 1.0"}, {"measurement": "Growth inhibition zone", "setting": "[10]; 600 μg on 5 mm disc", "result": "6.0 ± 1.0"}, {"measurement": "Growth inhibition zone", "setting": "[10]; 800 μg on 5 mm disc", "result": "6.0 ± 1.0"}, {"measurement": "Growth inhibition zone", "setting": "[11]; 200 μg on 5 mm disc", "result": "13.3 ± 1.4"}, {"measurement": "Growth inhibition zone", "setting": "[11]; 400 μg on 5 mm disc", "result": "13.0 ± 0.7"}, {"measurement": "Growth inhibition zone", "setting": "[11]; 600 μg on 5 mm disc", "result": "15.0 ± 0.7"}, {"measurement": "Growth inhibition zone", "setting": "[11]; 800 μg on 5 mm disc", "result": "13.3 ± 0.7"}, {"measurement": "Growth inhibition zone", "setting": "[12]; 200 μg on 5 mm disc", "result": "12.0 ± 0.6"}, {"measurement": "Growth inhibition zone", "setting": "[12]; 400 μg on 5 mm disc", "result": "14.3 ± 0.6"}, {"measurement": "Growth inhibition zone", "setting": "[12]; 600 μg on 5 mm disc", "result": "13.7 ± 1.5"}, {"measurement": "Growth inhibition zone", "setting": "[12]; 800 μg on 5 mm disc", "result": "14.6 ± 0.6"}, {"measurement": "antibacterial activity", "setting": "[13]; listed as Alkaline Copper Sulfate (OH)6", "result": "antibacterial activity on all bacterial strains tested"}, {"measurement": "antibacterial activity", "setting": "[13]; listed as product of invention", "result": "spectrum of antibacterial activity greater than the hydroxyphosphate copper compounds (II) and copper oxychloride (II)"}]}
